The text below walks through data of article PMC10135964, “One Scaffold, Two Conformations: The Ring-Flip of the Messenger InsP8 Occurs under Cytosolic Conditions” (Biomolecules, 2023).

Where two headings read alike, the source gives them in different places.

Details of data set [1]: method as in PMID 27460418, PMID 15708805, doi:10.1016/j.molstruc.2007.03.035. The conditions noted are these: 31P NMR (22 °C); equation as printed refers to InsP8 complexes; cited from earlier work.
Data set [2] is described as follows: 1H,13C BIRD-HMQC NMR quantification of axial vs. equatorial conformer. The data set is classed as physicochemical. As to conditions: pH* 8.5, 5 equiv. Ca2+, 130 mM KCl, 10 mM NaCl.
Assay in data set [3]: as above
As to conditions: 50 µM, 130 mM KCl, 10 mM NaCl, 4 °C. The data set is classed as physicochemical. The procedure:
Samples for HMQC-NMR studies contained 50 µM ^13C6-labeled InsPs (InsP6/5PP-InsP5/InsP8), 2 mM bis-tris-propane, 130 mM KCl, 10 mM NaCl and 0/50/250 µM MgCl2 in D2O.
BIRD-HMQC NMR spectra were recorded at 277 K and 600 MHz (^1H frequency) on a Bruker AV-III NMR spectrometer (Bruker Biospin, Rheinstetten, Germany) using cryogenically cooled 5 mm QCI-triple resonance probe equipped with one-axis self-shielded gradients. The spectrometer was operated using topspin 3.5 pl6 software. Instrument temperature was calibrated against […] according to Findeisen et al.. Acquisition parameters were SW(^13C): 60–90 ppm, NS: 128, TD(^13C): 64.
BIRD-HMQC spectra were recorded at 277 K as described above, with samples containing 200 µM InsPs, 130 mM KCl, 10 mM NaCl, 2mM BTP in D2O. pH was set to pH* 9.5 for InsP6, pH* 8.8 for 5PP-InsP5 and pH* 8.5 for InsP8 (pH = 0.929 × pH* + 0.42 [35]). NOESY-HMQC spectra of the same samples were subsequently recorded using mixing times of 80 ms for InsP6 and 5PP-InsP5 and 200 ms for InsP8. Conformational exchange on the time-scale of the experiment created cross-peaks between corresponding peaks in different conformations, which allowed us to assign each peak of the equatorial conformer to its axial counterpart.

On the set-up of data set [4]: method as in doi:10.1351/pac199163071015. The conditions noted are these: 150 mM NaCl, 37 °C; cited from earlier work.
On the set-up of data set [5]: method as in PMID 27460418, PMID 15708805, doi:10.1016/j.molstruc.2007.03.035. As to conditions: Potentiometry (37 °C); equation as printed refers to InsP8 complexes; cited from earlier work.
Where [6] appears, read: pH* 9.5, without divalent cations.

Regarding `O=P(O)(O)CP(=O)(O)O[C@H]1[C@H](OP(=O)(O)O)[C@@H](OP(=O)(O)O)[C@@H](OP(=O)(O)O)[C@@H](OP(=O)(O)O)[C@@H]1OP(=O)(O)O` [5PCP-InsP5], in data set [1], the “log K, 2 K^+ + H5L^9− ↔ [K2(H5L)]^7−” value was 2.79(7); the “log K, 3 K^+ + H4L^10− ↔ [K3(H4L)]^7−” value is given as 3.94(4); the “log K, 4 K^+ + H2L^12− ↔ [K4(H2L)]^8−” value is given as 4.61(3); the “log K, 4 K^+ + H3L^11− ↔ [K4(H3L)]^7−” value is 4.50(5). In data set [1], the “log K, 5 K^+ + HL^13− ↔ [K5(HL)]^8−” value is reported as 6.57(3); the “log K, L^14− + 2 H^+ ↔ H2L^12−” value was 22.42(2); the “log K, L^14− + 3 H^+ ↔ H3L^11−” value is 32.26(2); the “log K, L^14− + 4 H^+ ↔ H4L^10−” value is listed as 40.94(2). Also, in data set [1], the “log K, L^14− + 5 H^+ ↔ H5L^9−” value was 47.67(2); the “log K, L^14− + 6 H^+ ↔ H6L^8−” value is recorded as 51.93(2); the “log K, L^14− + 7 H^+ ↔ H7L^7−” value was 55.64(2); the “log K, L^14− + H^+ ↔ HL^13−” value is recorded as 11.48(1). Besides, in data set [1], the “log K, Mg^2+ + H2L^12− + 3 K^+ ↔ [MgK3(H2L)]^7−” value is recorded as 9.75(7); the “log K, Mg^2+ + H4L^10− + 2 K^+ ↔ [MgK2(H4L)]^6−” value is 6.96(7); the “log K, Mg^2+ + H5L^9− + K^+ ↔ [MgK(H5L)]^6−” value was 5.26(7); the “log K, Mg^2+ + H6L^8− ↔ [Mg(H6L)]^6−” value is 4.71(7). Moreover, the “log K, Mg^2+ + HL^13− + 4 K^+ ↔ [MgK4(HL)]^7−” value in data set [1] is 11.64(5).

Take `O=P(O)(O)O[C@H]1[C@@H](OP(=O)(O)O)[C@H](OP(=O)(O)O)[C@@H](OP(=O)(O)OP(=O)(O)O)[C@H](OP(=O)(O)O)[C@H]1OP(=O)(O)O` [5PP-InsP5]: the “proportion in axial conformation” value is given as “About 60%” in data set [2]; “exclusively the axial conformation” in data set [3] (pH* 8.5 (=pH 8.3) and higher, 5 equiv. Mg2+); “about 10%” in data set [3] (pH* 8.5, without divalent cations); “only detected in the axial conformation” in data set [3] (setting [6]).

For the molecule `Nc1ncnc2c1ncn2[C@@H]1O[C@H](COP(=O)(O)OP(=O)(O)OP(=O)(O)O)[C@@H](O)[C@H]1O` [ATP], in data set [4], the “log(K), Mg^2+ + ATP^4− → [MgATP]^2−” value is reported as 4.34 and the “log(K), Mg^2+ + HATP^3− → [Mg(HATP)]^−” value is listed as 2.39.

As for `O=P(O)(O)O[C@H]1[C@H](OP(=O)(O)O)[C@@H](OP(=O)(O)O)[C@H](OP(=O)(O)O)[C@@H](OP(=O)(O)O)[C@H]1OP(=O)(O)O` [InsP6], in data set [5], the “log K, 3 K^+ + H4L^10− ↔ [K3(H4L)]^7−” value is on record as 3.36(5); the “log K, 4 K^+ + H3L^11− ↔ [K4(H3L)]^7−” value was 5.42(5); the “log K, L^14− + 2 H^+ ↔ H2L^12−” value is recorded as 21.3(1); the “log K, L^14− + 3 H^+ ↔ H3L^11−” value is on record as 31.63(6). Also, in data set [5], the “log K, L^14− + 4 H^+ ↔ H4L^10−” value is 40.42(6); the “log K, L^14− + 5 H^+ ↔ H5L^9−” value was 47.32(6); the “log K, L^14− + 6 H^+ ↔ H6L^8−” value is given as 53.04(7); the “log K, L^14− + 7 H^+ ↔ H7L^7−” value was 56.14(9). Moreover, in data set [5], the “log K, L^14− + H^+ ↔ HL^13−” value is 10.8(1). In data set [3] (pH* 9.0, 1 equiv. Mg2+), the “proportion in axial conformation” value is listed as “about 30%”. Also, the “proportion in axial conformation” value in data set [3] (pH* 9.0, without divalent cations) is listed as “traces”. For the same molecule, in data set [3] (pH* 9.5, 1 equiv. Mg2+), the “proportion in axial conformation” value is given as roughly 90%. In addition, in data set [3] (setting [6]), the “proportion in axial conformation” value is “less than half”.
